# According to US20210038607A1, “OXADIAZOLYLTHIOPHENE DERIVATIVES USEFUL AS HISTONE DEACETYLASE INHIBITORS” (Karus Therapeutics Limited, priority 2018, published 2021):
# Like-named read-outs stand apart in the source and are kept apart here.
# Legend:
# Recombinant human HDAC6 = target: T1, Recombinant human HDAC6 (Homo sapiens, UniProt Q9UBN7); assay: HDAC6 biochemical assay, AMC-labeled peptide substrate
# T1 construct: full length, MW=159 kDa; GST (N); host or cells: Sf9 insect cells (baculovirus)
# T1 sequence (Q9UBN7 1-1215): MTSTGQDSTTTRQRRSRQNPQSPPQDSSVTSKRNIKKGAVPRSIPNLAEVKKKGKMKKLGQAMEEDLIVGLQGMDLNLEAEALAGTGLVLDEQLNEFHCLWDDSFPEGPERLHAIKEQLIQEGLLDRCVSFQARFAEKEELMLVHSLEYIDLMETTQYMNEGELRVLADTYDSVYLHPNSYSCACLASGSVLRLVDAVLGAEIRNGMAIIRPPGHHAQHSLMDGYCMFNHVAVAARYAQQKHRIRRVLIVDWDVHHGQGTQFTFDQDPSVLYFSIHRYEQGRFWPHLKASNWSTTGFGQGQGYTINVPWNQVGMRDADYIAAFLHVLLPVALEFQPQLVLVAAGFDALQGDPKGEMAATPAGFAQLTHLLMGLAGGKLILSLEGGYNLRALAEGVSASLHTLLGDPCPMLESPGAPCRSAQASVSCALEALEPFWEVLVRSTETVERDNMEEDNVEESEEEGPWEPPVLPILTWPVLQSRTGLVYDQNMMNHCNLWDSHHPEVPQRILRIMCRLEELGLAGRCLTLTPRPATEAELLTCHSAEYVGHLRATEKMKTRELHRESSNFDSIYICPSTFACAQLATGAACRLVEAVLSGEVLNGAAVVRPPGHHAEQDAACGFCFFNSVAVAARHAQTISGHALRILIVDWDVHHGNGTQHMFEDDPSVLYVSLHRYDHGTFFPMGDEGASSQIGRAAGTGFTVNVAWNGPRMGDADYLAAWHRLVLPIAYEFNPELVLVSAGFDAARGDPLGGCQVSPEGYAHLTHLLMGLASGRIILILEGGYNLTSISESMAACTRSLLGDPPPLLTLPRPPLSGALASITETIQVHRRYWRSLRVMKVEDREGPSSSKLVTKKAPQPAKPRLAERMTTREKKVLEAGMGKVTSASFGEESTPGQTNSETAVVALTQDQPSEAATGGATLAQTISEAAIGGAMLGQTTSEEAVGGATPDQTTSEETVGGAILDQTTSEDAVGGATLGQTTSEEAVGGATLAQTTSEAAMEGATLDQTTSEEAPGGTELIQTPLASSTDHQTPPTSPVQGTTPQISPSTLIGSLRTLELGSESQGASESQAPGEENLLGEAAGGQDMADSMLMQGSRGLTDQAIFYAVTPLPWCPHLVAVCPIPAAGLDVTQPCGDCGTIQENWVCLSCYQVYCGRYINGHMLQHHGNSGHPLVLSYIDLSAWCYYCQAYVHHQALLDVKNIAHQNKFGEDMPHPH
# In short: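 Two-step fluorogenic read-out: enzyme deacetylates 50 μM RHKK(Ac)AMC for 1 h at 30° C in pH 8.0 Tris buffer with BSA and 1% DMSO, then developer cleavage gives signal at Ex 360/Em 460. Enzyme: 0.3 ng/ul recombinant full-length human HDAC6, GST-tagged, Sf9-expressed.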
# Human HDAC5 = target: T2, Human HDAC5 (Homo sapiens, UniProt Q9UQL6); assay: HDAC5 biochemical assay, class IIa-specific substrate; conditions: read-out: HDAC Isoform IC50 (nM) 5
# T2 construct: full length with C-terminal His tag, MW=51.1 kDa; His (C); host or cells: baculovirus expression system
# In short: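 Full-length C-terminal His-tagged HDAC5 from baculovirus (0.05 ng/ul) incubated 30 min at room temperature with 50 μM Boc-Lys(trifluoroacetyl)-AMC and compound, Tris pH 8.0 buffer with BSA, 1% DMSO. Developer then releases AMC; fluorescence 360/460 nm.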
# Human HDAC11 = target: T3, Human HDAC11 (Homo sapiens, UniProt Q96DB2); assay: HDAC11 biochemical assay, class IIa-specific substrate; conditions: read-out: HDAC Isoform IC50 (nM) 11
# T3 construct: Human HDAC11 (full length); His (N); host or cells: baculovirus expression system
# T3 sequence (Q96DB2 1-347): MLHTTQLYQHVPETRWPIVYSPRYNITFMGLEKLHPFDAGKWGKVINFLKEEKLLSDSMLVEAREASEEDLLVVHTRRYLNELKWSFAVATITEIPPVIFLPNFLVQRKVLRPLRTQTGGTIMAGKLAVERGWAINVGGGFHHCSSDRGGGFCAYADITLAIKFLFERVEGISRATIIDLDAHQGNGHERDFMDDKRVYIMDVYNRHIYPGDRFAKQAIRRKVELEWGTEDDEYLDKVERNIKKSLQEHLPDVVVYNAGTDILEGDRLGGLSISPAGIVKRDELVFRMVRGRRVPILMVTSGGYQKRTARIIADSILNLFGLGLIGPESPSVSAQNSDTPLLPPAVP
# Protocol: Activity against all zinc-dependent HDACs 1 to 11 was assessed by using an acetylated AMC-labeled peptide substrate. The substrate RHKK(Ac)AMC was used for HDAC1, HDAC2, HDAC3, HDAC6 and HDAC10; the substrate used for HDAC8 was RHK(Ac)K(Ac)AMC. Activity against the class IIa HDACs (HDAC4, 5, 7, 9) and HDAC11 was determined using a class IIa-specific substrate, BOC-Lys(trifluoroacetyl)-AMC (“Trifluoroacetyl Lysine”; see Lahm et al, 2007, PNAS, 104, 17335-17340). All assays were based on the AMC-labeled substrate and developer combination.
# The protocol involved a two-step reaction: first, the substrate with the acetylated lysine side chain is incubated with a sample containing HDAC activity, to produce the deacetylated products, which are then digested in the second step by the addition of developer to produce the fluorescent signal proportional to the amount of deacetylated substrates.
# Human HDAC11 (full length) (GenBank Accession No. NM_024827) with N-terminal His tag, MW=42.9 kDa, expressed in baculovirus expression system.
# Assay Buffer: 50 mM Tris-HCl, pH8.0, 137 mM NaCl, 2.7 mM KCl, 1 mM MgC2. Before use, 1 mg/mL BSA and DMSO are added.
# HDAC11: 5 ng/ul HDAC11 and 50 μMHDAC substrate are in the reaction buffer with 1% DMSO final. Incubate for 30 minutes at 30° C.
# Stage 1: Deacetylation of substrate by incubation of HDAC enzymes with compounds
# Stage 2: Development by addition of Developer to digest the deacetylated substrate, and generate the fluorescent colour; Detection: 360/460 Ex/Em
# [1] = HDAC6, read-out: HDAC Isoform IC50 (nM) 6
# T2 sequence (Q9UQL6 656-1122 limits assumed): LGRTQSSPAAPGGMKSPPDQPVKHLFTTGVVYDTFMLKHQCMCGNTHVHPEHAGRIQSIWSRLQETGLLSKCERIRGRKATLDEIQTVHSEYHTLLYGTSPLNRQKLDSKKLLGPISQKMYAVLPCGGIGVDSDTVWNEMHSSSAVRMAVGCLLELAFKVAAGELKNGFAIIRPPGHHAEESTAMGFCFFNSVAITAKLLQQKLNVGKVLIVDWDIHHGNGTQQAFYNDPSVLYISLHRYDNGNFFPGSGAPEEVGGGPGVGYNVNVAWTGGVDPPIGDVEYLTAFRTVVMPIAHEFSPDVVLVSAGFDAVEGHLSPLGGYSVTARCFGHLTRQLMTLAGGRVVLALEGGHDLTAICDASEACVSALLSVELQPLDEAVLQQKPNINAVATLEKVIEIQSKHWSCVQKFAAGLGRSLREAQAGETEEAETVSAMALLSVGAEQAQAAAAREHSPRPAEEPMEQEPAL
IC50 (Recombinant human HDAC6; [1]),IC50 (Human HDAC5),IC50 (Human HDAC11),"IC50 (Recombinant human HDAC6; With assay conditions in the experimental section described herein, read-out: HDAC6 IC50)",Structure (SMILES)
≤ 500 nM,≤ 1000 nM,> 10000 nM,,"CC1(c2cnnc(N(Cc3ccc(-c4noc(C(F)(F)F)n4)s3)c3cnccn3)c2)COC1 [Example GT, 5-(3-Methyloxetan-3-yl)-N-(pyrazin-2-yl)-N-({5-[5-(trifluoromethyl)-1,2,4-oxadiazol-3-yl]thiophen-2-yl}methyl)pyridazin-3-amine]"
≤ 10000 nM,≤ 10000 nM,> 10000 nM,,"O=C(O)c1ccc(N(Cc2sc(-c3noc(C(F)(F)F)n3)cc2F)c2cnccn2)nn1 [Example EZ, 6-[({3-Fluoro-5-[5-(trifluoromethyl)-1,2,4-oxadiazol-3-yl]thiophen-2-yl}methyl)(pyrazin-2-yl)amino]pyridazine-3-carboxylic acid]"
≤ 500 nM,≤ 1000 nM,> 10000 nM,,"O=C(c1cnnc(N(Cc2ccc(-c3noc(C(F)(F)F)n3)s2)c2cnccn2)c1)N1CCC(F)(F)CC1 [Example FY, 5-(4,4-Difluoropiperidine-1-carbonyl)-N-(pyrazin-2-yl)-N-({5-[5-(trifluoromethyl)-1,2,4-oxadiazol-3-yl]thiophen-2-yl}methyl)pyridazin-3-amine]"
≤ 500 nM,≤ 500 nM,> 10000 nM,,"O=C(c1ccc(N(Cc2ccc(-c3noc(C(F)(F)F)n3)s2)c2cnccn2)nn1)N1CCC2(COC2)C1 [Example FJ, 6-{2-Oxa-6-azaspiro[3.4]octane-6-carbonyl}-N-(pyrazin-2-yl)-N-({5-[5-(trifluoromethyl)-1,2,4-oxadiazol-3-yl]thiophen-2-yl}methyl)pyridazin-3-amine]"
≤ 500 nM,≤ 500 nM,> 10000 nM,,"O=C(c1cnnc(N(Cc2ccc(-c3noc(C(F)(F)F)n3)s2)c2cnccn2)c1)N1CCC12COC2 [Example GF, 5-{6-Oxa-1-azaspiro[3.3]heptane-1-carbonyl}-N-(pyrazin-2-yl)-N-({5-[5-(trifluoromethyl)-1,2,4-oxadiazol-3-yl]thiophen-2-yl}methyl)pyridazin-3-amine]"
≤ 500 nM,≤ 10000 nM,> 10000 nM,,"O=C(c1cnnc(N(Cc2ccc(-c3noc(C(F)(F)F)n3)s2)c2cnccn2)c1)N1CC(C(F)(F)F)C1 [Example GJ, N-(Pyrazin-2-yl)-N-({5-[5-(trifluoromethyl)-1,2,4-oxadiazol-3-yl]thiophen-2-yl}methyl)-5-[3-(trifluoromethyl)azetidine-1-carbonyl]pyridazin-3-amine]"
≤ 500 nM,≤ 1000 nM,> 10000 nM,,"O=C(O)c1cnnc(N(Cc2sc(-c3noc(C(F)(F)F)n3)cc2F)c2cnccn2)c1 [Example FA, 6-[({3-fluoro-5-[5-(trifluoromethyl)-1,2,4-oxadiazol-3-yl]thiophen-2-yl}methyl)(pyrazin-2-yl)amino]pyridazine-4-carboxylic acid]"
≤ 1000 nM,≤ 10000 nM,> 10000 nM,,"O=C(c1nccnc1N(Cc1ccc(-c2noc(C(F)(F)F)n2)s1)c1cnccn1)N1CCC1 [Example GP, 3-(Azetidine-1-carbonyl)-N-(pyrazin-2-yl)-N-({5-[5-(trifluoromethyl)-1,2,4-oxadiazol-3-yl]thiophen-2-yl}methyl)pyrazin-2-amine]"
≤ 500 nM,≤ 1000 nM,> 10000 nM,99.1 nM,"O=C(c1cnnc(N(Cc2ccc(-c3noc(C(F)(F)F)n3)s2)c2cnccn2)c1)N1CCOCC1 [Example EB, 5-(Morpholine-4-carbonyl)-N-(pyrazin-2-yl)-N-({5-[5-(trifluoromethyl)-1,2,4-oxadiazol-3-yl]thiophen-2-yl}methyl)pyridazin-3-amine]"
≤ 1000 nM,≤ 1000 nM,> 10000 nM,,"FC(F)(F)c1nc(-c2ccc(CN(c3cnccn3)c3cc(CN4CCCC4)ccn3)s2)no1 [Example GG, N-{4-[(Pyrrolidin-1-yl)methyl]pyridin-2-yl}-N-({5-[5-(trifluoromethyl)-1,2,4-oxadiazol-3-yl]thiophen-2-yl}methyl)pyrazin-2-amine]"
≤ 500 nM,≤ 500 nM,> 10000 nM,,"O=C(c1ccc(N(Cc2ccc(-c3noc(C(F)(F)F)n3)s2)c2cnccn2)nn1)N1CCC1 [Example FF, 6-(Azetidine-1-carbonyl)-N-(pyrazin-2-yl)-N-({5-[5-(trifluoromethyl)-1,2,4-oxadiazol-3-yl]thiophen-2-yl}methyl)pyridazin-3-amine]"
≤ 1000 nM,≤ 1000 nM,> 10000 nM,,"FC(F)(F)c1nc(-c2ccc(CN(c3cnccn3)c3ncccn3)s2)no1 [Example AS, N-(Pyrimidin-2-yl)-N-({5-[5-(trifluoromethyl)-1,2,4-oxadiazol-3-yl]thiophen-2-yl}methyl)pyrazin-2-amine]"
≤ 500 nM,≤ 1000 nM,> 10000 nM,,"Cc1cnc(N(Cc2ccc(-c3noc(C(F)(F)F)n3)s2)c2cnccn2)cn1 [Example BH, 5-Methyl-N-(pyrazin-2-yl)-N-({5-[5-(trifluoromethyl)-1,2,4-oxadiazol-3-yl]thiophen-2-yl}methyl)pyrazin-2-amine]"
≤ 500 nM,≤ 10000 nM,> 10000 nM,,"OC1(c2cnnc(N(Cc3ccc(-c4noc(C(F)(F)F)n4)s3)c3cnccn3)c2)COC1 [Example GW, 3-{6-[(Pyrazin-2-yl)({5-[5-(trifluoromethyl)-1,2,4-oxadiazol-3-yl]thiophen-2-yl}methyl)amino]pyridazin-4-yl}oxetan-3-ol]"
≤ 500 nM,≤ 500 nM,> 10000 nM,,"O=C(c1ccc(N(Cc2ccc(-c3noc(C(F)(F)F)n3)s2)c2cnccn2)nn1)N1CCCC1 [Example FI, N-(Pyrazin-2-yl)-6-(pyrrolidine-1-carbonyl)-N-({5-[5-(trifluoromethyl)-1,2,4-oxadiazol-3-yl]thiophen-2-yl}methyl)pyridazin-3-amine]"
